# Legend:
# [1] = Solubility of reaction components and additives in MS; format: physicochemical
# [2] = Solubility of catalysts in MS and co-solvents
structure (smiles),measurement,setting,value
"O=C(O)CCCCCCCCCCCCC(=O)O [1,12-Dodecanedicarboxylic acid]","Solubility in MS, T (90° C.)","[1]; 0.8 wt %, 0.1 g in 10 ml MS",Dissolved
same,Stable at T (room) for:,"[1]; solution in MS, 0.8 wt %, result in words",Crystalized
"COC(=O)c1ccccc1OC(=O)Oc1ccccc1C(=O)OC [BMSC, bismethylsalicylcarbonate]","Solubility in MS, T (90° C.)","[1]; 4.1 wt %, 0.5 g in 10 ml MS",Dissolved
same,"Solubility in MS, T (100° C.)","[1]; 17.5 wt %, 2.5 g in 10 ml MS",Dissolved
same,Stable at T (room) for:,"[1]; solution in MS, 4.1 wt %",>24 h
same,Stable at T (room) for:,"[1]; solution in MS, 17.5 wt %",>24 h
CC(=O)[O-].[Cs+] [CS-Acetate],"Solubility of catalyst, T (room)","[2]; 0.79 wt %, 0.1 g, 10.0 ml MS + 1.0 ml MeOH",Dissolved
same,Stable at T (room) for:,"[2]; 0.79 wt %, 10.0 ml MS + 1.0 ml MeOH",>24 h
O=C(Oc1ccccc1)Oc1ccccc1 [Diphenyl Carbonate],"Solubility in MS, T (90° C.)","[1]; 4.1 wt %, 0.5 g in 10 ml MS",Dissolved
same,Stable at T (room) for:,"[1]; solution in MS, 4.1 wt %",>24 h
CC(C)(C)c1ccc(OP(Oc2ccc(C(C)(C)C)cc2C(C)(C)C)Oc2ccc(C(C)(C)C)cc2C(C)(C)C)c(C(C)(C)C)c1 [Irgafos 168],"Solubility in MS, T (room)","[1]; 0.8 wt %, 0.1 g in 10 ml MS",Dissolved
same,"Solubility in MS, T (50° C.)","[1]; 4.1 wt %, 0.5 g in 10 ml MS",Dissolved
same,Stable at T (room) for:,"[1]; solution in MS, 0.8 wt %",5 h
same,Stable at T (room) for:,"[1]; solution in MS, 4.1 wt %",<2 h
"O[C@@H]1CO[C@H]2[C@@H]1OC[C@@H]2O [Isosorbide, 1,4:3,6-dianhydro-D-sorbitol]","Solubility in MS, T (room)","[1]; 0.8 wt %, 0.1 g in 10 ml MS",Dissolved
same,"Solubility in MS, T (room)","[1]; 4.1 wt %, 0.5 g in 10 ml MS",Dissolved
same,Stable at T (room) for:,"[1]; solution in MS, 0.8 wt %",>48 h
same,Stable at T (room) for:,"[1]; solution in MS, 4.1 wt %",>24 h
Cc1cc(O)ccc1O [Methyl hydroquinone],"Solubility in MS, T (room)","[1]; 0.8 wt %, 0.1 g in 10 ml MS",Dissolved
same,"Solubility in MS, T (90° C.)","[1]; 7.8 wt %, 1 g in 10 ml MS",Dissolved
CC(C)(c1ccccc1)c1ccc(O)cc1 [Para-Cumyl Phenol],Stable at T (room) for:,[1],>24 h
same,"Solubility in MS, T (room)","[1]; 4.1 wt %, 0.5 g in 10 ml MS",Dissolved
same,"Solubility in MS, T (room)","[1]; 17.5 wt %, 2.5 g in 10 ml MS",Dissolved
same,"Solubility in MS, T (room)","[1]; 29.7 wt %, 5 g in 10 ml MS",Dissolved
Oc1cccc(O)c1 [Resorcinol],Stable at T (room) for:,"[1]; solution in MS, 0.8 wt %",>48 h
same,Stable at T (room) for:,"[1]; solution in MS, 7.8 wt %",>24 h
CC(=O)[O-].CCCC[N+](CCCC)(CCCC)CCCC [Tetra Butyl Ammonium Acetate],Stable at T (room) for:,"[2]; 2.47 wt %, 10.0 ml MS, no co-solvent",>72 h
